Reference: patent US20100129436A1, “SUBTANCES FOR THE PROTECTION OF CELLS AND/OR TISSUES” (priority 2007, published 2010)

The molecules below were run on endothelial cells, e.g. cells of the endothelium of the human umbilical cord vein (assay: Protection of cultured endothelial cells against cold-induced damage (lactate dehydrogenase release)). Settings: Homo sapiens, Endothelial cell; cells pre-incubated with test substance, medium replaced, then incubated e.g. 24 hours at 0° C; LDH in supernatant; read-out: EC50 (concentration at which 50% of the release of lactate dehydrogenase is inhibited).
Type: cell-based
Experimental: The active substances are synthesised as described below. The action of the substances on cold-induced damage to cells is quantified in a model system. For this purpose, endothelial cells, e.g. cells of the endothelium of the human umbilical cord vein, are cultured. The cells are incubated with various concentrations of the test substances for variable periods of time and then the medium is replaced by fresh medium without any test substance. Next, the cells are incubated e.g. for 24 hours at 0° C. At the end of the incubation period, the lactate dehydrogenase released is determined in the supernatant of the culture vessels by known methods, this concentration being a measure of cell damage. The effectiveness of the individual compounds is determined by the concentration at which 50% of the release of lactate dehydrogenase is inhibited (EC50).

`CNCC(O)c1ccc(O)c(O)c1` (stereo not shown) [Adrenalin, reference compound] and `NC[C@H](O)c1ccc(O)c(O)c1` [Noradrenalin, reference compound] are within 1.5-fold of each other in EC50: 600 µM for the first, 700 µM for the second.

First: CC(CCc1ccc(O)cc1)NCCc1ccc(O)c(O)c1 (stereo not shown) [Dobutamine, reference compound]
Second: O=C(CCc1ccccc1)NCCc1ccc(O)c(O)c1 [N-(3-Phenylpropanoyl) dopamine]
The EC50 of the first is 1.8-fold lower: 5 µM for the first, 9 ± 1 µM for the second.

First: NCCc1ccc(O)c(O)c1 [Dopamine, reference compound]
Second: CCCCCCCC(=O)NCCc1ccc(O)c(O)c1 [N-Octanoyl dopamine]
The EC50 of the first is 36-fold higher: 75 µM for the first, 2.1 ± 0.2 µM for the second.

Going from `Cc1ccc(S(=O)(=O)NCCc2ccc(O)c(O)c2)cc1` [N-(4-Methylphenylsulfonyl) dopamine] to `CCCCCCCCCC(=O)NCCc1ccc(O)c(O)c1` [N-Decanoyl dopamine], the EC50 falls from 12 ± 1 µM to 0.9 ± 0.2 µM (13-fold).

`CCCCCCCCCCCC(=O)NCCc1ccc(O)c(O)c1` [N-Dodecanoyl dopamine] and `CCCCCCCCCCCCCC(=O)NCCc1ccc(O)c(O)c1` [N-Tetradecanoyl dopamine] are within error of each other in EC50: 1.2 ± 0.2 µM for the first, 1.3 ± 0.2 µM for the second.

Same assay, conditions: cells pre-incubated with test substance, medium replaced, then incubated e.g. 24 hours at 0° C; LDH in supernatant; read-out: EC50 (concentration at which 50% of the release of lactate dehydrogenase is inhibited)

First: CCCCCCCCNC(=O)c1cccc(O)c1O [2,3-Dihydroxybenzoyl amidooctane]
Second: CCCCCCCCNC(=O)c1cc(O)ccc1O [2,5-Dihydroxybenzoyl amidooctane]
The EC50 of the first is 5-fold lower: 1.2 ± 0.1 µM for the first, 6 ± 1 µM for the second. The first is the more potent here.

Molecule `CCCCCCCCNC(=O)c1ccc(O)c(O)c1` [3,4-Dihydroxybenzoyl amidooctane] has an EC50 of 2.4 ± 0.2 µM.
